#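 Interpolation was linear, between the two tested concentrations surrounding the appropriate level; five concentrations were tested over 48 hours in 96-well plates. GI50 is the concentration that inhibits growth by half. TGI marks complete inhibition of growth.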
# Assays:
# Assay in all cases: NCI tumour cell line growth inhibition, 48 h
# A549 NSCLC = test system: A549 NSCLC
# M19-MEL melanoma = test system: M19-MEL melanoma
# TK-10 renal = test system: TK-10 renal
# NCI-H226 lung = test system: NCI-H226 lung
# 786-0 renal = test system: 786-0 renal
# SR leukemia = test system: SR leukemia
# SW-620 colon = test system: SW-620 colon
# NCI-H522 lung = test system: NCI-H522 lung
# M14 melanoma = test system: M14 melanoma
# HL-60(TB) leukemia = test system: HL-60(TB) leukemia
# SK-OV-3 ovarian = test system: SK-OV-3 ovarian
# HCT-116 colon = test system: HCT-116 colon
# EKVX NSCLC = test system: EKVX NSCLC
# OVCAR-8 ovarian = test system: OVCAR-8 ovarian
# MOLT-4 leukemia = test system: MOLT-4 leukemia
# DMS 114 small cell lung = test system: DMS 114 small cell lung
# SN12C renal = test system: SN12C renal
# NCI-H23 lung = test system: NCI-H23 lung
# DMS 273 small cell lung = test system: DMS 273 small cell lung
# SNB-75 CNS = test system: SNB-75 CNS
# KM12 colon = test system: KM12 colon
# NCI-H460 lung = test system: NCI-H460 lung
# SNB-19 CNS = test system: SNB-19 CNS
# XF 498 CNS = test system: XF 498 CNS
# SF-268 CNS = test system: SF-268 CNS
# ACHN renal = test system: ACHN renal
# SF-539 CNS = test system: SF-539 CNS
# SK-MEL-28 melanoma = test system: SK-MEL-28 melanoma
# K-562 leukemia = test system: K-562 leukemia
# HOP-92 NSCLC = test system: HOP-92 NSCLC
# HT29 colon = test system: HT29 colon
# CCRF-CEM leukemia = test system: CCRF-CEM leukemia
# SF-295 CNS = test system: SF-295 CNS
# A498 renal = test system: A498 renal
# CAKI-1 renal = test system: CAKI-1 renal
# IGROV1 ovarian = test system: IGROV1 ovarian
# UACC-62 melanoma = test system: UACC-62 melanoma
# MALME-3M melanoma = test system: MALME-3M melanoma
# SK-MEL-5 melanoma = test system: SK-MEL-5 melanoma
# OVCAR-3 ovarian = test system: OVCAR-3 ovarian
# OVCAR-5 ovarian = test system: OVCAR-5 ovarian
# COLO 205 colon = test system: COLO 205 colon
# LXFL 529 NSCLC = test system: LXFL 529 NSCLC
# UO-31 renal = test system: UO-31 renal
# OVCAR-4 ovarian = test system: OVCAR-4 ovarian
# SNB-78 CNS = test system: SNB-78 CNS
# HCC-2998 colon = test system: HCC-2998 colon
# LOX IMVI melanoma = test system: LOX IMVI melanoma
# U251 CNS = test system: U251 CNS
# RPMI-8226 leukemia = test system: RPMI-8226 leukemia
# RXF 393 renal = test system: RXF 393 renal
# DLD-1 colon = test system: DLD-1 colon
# SK-MEL-2 melanoma = test system: SK-MEL-2 melanoma
# HCT-15 colon = test system: HCT-15 colon
# UACC-257 melanoma = test system: UACC-257 melanoma
# HOP-62 NSCLC = test system: HOP-62 NSCLC
# HOP-18 NSCLC = test system: HOP-18 NSCLC
# KM20L2 colon = test system: KM20L2 colon
# RXF-631 renal = test system: RXF-631 renal
structure (smiles),measurement,setting,value
CN(C(=O)C12C3C4C1C1C2C3C41C(N)=O)C(C)(C)C (stereo unspecified),TGI,A549 NSCLC,> 100 µM
same,TGI,M19-MEL melanoma,> 100 µM
same,TGI,TK-10 renal,> 100 µM
same,TGI,NCI-H226 lung,> 100 µM
same,TGI,786-0 renal,> 100 µM
same,TGI,SR leukemia,> 100 µM
same,TGI,SW-620 colon,> 100 µM
same,TGI,NCI-H522 lung,> 100 µM
same,TGI,M14 melanoma,> 100 µM
same,TGI,HL-60(TB) leukemia,> 100 µM
same,TGI,SK-OV-3 ovarian,> 100 µM
same,TGI,HCT-116 colon,> 100 µM
same,TGI,EKVX NSCLC,> 100 µM
same,TGI,OVCAR-8 ovarian,> 100 µM
same,TGI,MOLT-4 leukemia,> 100 µM
same,TGI,DMS 114 small cell lung,> 100 µM
same,TGI,SN12C renal,> 100 µM
same,TGI,NCI-H23 lung,> 100 µM
same,TGI,DMS 273 small cell lung,> 100 µM
same,TGI,SNB-75 CNS,> 100 µM
same,TGI,KM12 colon,> 100 µM
same,TGI,NCI-H460 lung,> 100 µM
same,TGI,SNB-19 CNS,> 100 µM
same,TGI,XF 498 CNS,> 100 µM
same,TGI,SF-268 CNS,> 100 µM
same,TGI,ACHN renal,> 100 µM
same,TGI,SF-539 CNS,> 100 µM
same,TGI,SK-MEL-28 melanoma,> 100 µM
same,TGI,K-562 leukemia,> 100 µM
same,TGI,HOP-92 NSCLC,> 100 µM
same,TGI,HT29 colon,> 100 µM
same,TGI,CCRF-CEM leukemia,> 100 µM
same,TGI,SF-295 CNS,> 100 µM
same,TGI,A498 renal,> 100 µM
same,TGI,CAKI-1 renal,> 100 µM
same,TGI,IGROV1 ovarian,> 100 µM
same,TGI,UACC-62 melanoma,> 100 µM
same,TGI,MALME-3M melanoma,> 100 µM
same,TGI,SK-MEL-5 melanoma,> 100 µM
same,TGI,OVCAR-3 ovarian,> 100 µM
same,TGI,OVCAR-5 ovarian,> 100 µM
same,TGI,COLO 205 colon,> 100 µM
same,TGI,LXFL 529 NSCLC,> 100 µM
same,TGI,UO-31 renal,> 100 µM
same,TGI,OVCAR-4 ovarian,> 100 µM
same,TGI,SNB-78 CNS,> 100 µM
same,TGI,HCC-2998 colon,> 100 µM
CCOC(=O)CC[C@H](NC(=O)c1nc[nH]c1[N+](=O)[O-])C(=O)OCC,TGI,A549 NSCLC,> 100 µM
same,TGI,LOX IMVI melanoma,> 100 µM
same,TGI,TK-10 renal,> 100 µM
same,TGI,U251 CNS,> 100 µM
same,TGI,NCI-H226 lung,> 100 µM
same,TGI,786-0 renal,> 100 µM
same,TGI,SR leukemia,> 100 µM
same,TGI,RPMI-8226 leukemia,> 100 µM
same,TGI,NCI-H522 lung,> 100 µM
same,TGI,M14 melanoma,> 100 µM
same,TGI,HL-60(TB) leukemia,> 100 µM
same,TGI,SK-OV-3 ovarian,> 100 µM
same,TGI,HCT-116 colon,> 100 µM
same,TGI,EKVX NSCLC,> 100 µM
same,TGI,RXF 393 renal,> 100 µM
same,TGI,OVCAR-8 ovarian,> 100 µM
same,TGI,MOLT-4 leukemia,> 100 µM
same,TGI,DMS 114 small cell lung,> 100 µM
same,TGI,DLD-1 colon,> 100 µM
same,TGI,SN12C renal,> 100 µM
same,TGI,NCI-H23 lung,> 100 µM
same,TGI,DMS 273 small cell lung,> 100 µM
same,TGI,KM12 colon,> 100 µM
same,TGI,SK-MEL-2 melanoma,> 100 µM
same,TGI,NCI-H460 lung,> 100 µM
same,TGI,SNB-19 CNS,> 100 µM
same,TGI,SF-268 CNS,> 100 µM
same,TGI,ACHN renal,> 100 µM
same,TGI,HCT-15 colon,> 100 µM
same,TGI,UACC-257 melanoma,> 100 µM
same,TGI,SF-539 CNS,> 100 µM
same,TGI,SK-MEL-28 melanoma,> 100 µM
same,TGI,K-562 leukemia,> 100 µM
same,TGI,HOP-92 NSCLC,> 100 µM
same,TGI,CCRF-CEM leukemia,> 100 µM
same,TGI,SF-295 CNS,> 100 µM
same,TGI,HOP-62 NSCLC,> 100 µM
same,TGI,A498 renal,> 100 µM
same,TGI,IGROV1 ovarian,> 100 µM
same,TGI,UACC-62 melanoma,> 100 µM
same,TGI,MALME-3M melanoma,> 100 µM
same,TGI,OVCAR-3 ovarian,> 100 µM
same,TGI,HOP-18 NSCLC,> 100 µM
same,TGI,COLO 205 colon,> 100 µM
same,TGI,LXFL 529 NSCLC,> 100 µM
same,TGI,UO-31 renal,> 100 µM
same,TGI,OVCAR-4 ovarian,> 100 µM
same,TGI,SNB-78 CNS,> 100 µM
same,TGI,KM20L2 colon,> 100 µM
same,TGI,HCC-2998 colon,> 100 µM
Cc1cn(C2CC3C(COCN3O)O2)c(=O)[nH]c1=O (stereo unspecified),TGI,A549 NSCLC,> 100 µM
same,TGI,LOX IMVI melanoma,> 100 µM
same,TGI,M19-MEL melanoma,> 100 µM
same,TGI,TK-10 renal,> 100 µM
same,TGI,U251 CNS,> 100 µM
same,TGI,NCI-H226 lung,> 100 µM
same,TGI,786-0 renal,> 100 µM
same,TGI,SR leukemia,> 100 µM
same,TGI,SW-620 colon,> 100 µM
same,TGI,RPMI-8226 leukemia,> 100 µM
same,TGI,M14 melanoma,> 100 µM
same,TGI,HL-60(TB) leukemia,> 100 µM
same,TGI,SK-OV-3 ovarian,> 100 µM
same,TGI,HCT-116 colon,> 100 µM
same,TGI,EKVX NSCLC,> 100 µM
same,TGI,RXF 393 renal,> 100 µM
same,TGI,OVCAR-8 ovarian,> 100 µM
same,TGI,MOLT-4 leukemia,> 100 µM
same,TGI,DMS 114 small cell lung,> 100 µM
same,TGI,SN12C renal,> 100 µM
same,TGI,NCI-H23 lung,> 100 µM
same,TGI,DMS 273 small cell lung,> 100 µM
same,TGI,SNB-75 CNS,> 100 µM
same,TGI,KM12 colon,> 100 µM
same,TGI,NCI-H460 lung,> 100 µM
same,TGI,SNB-19 CNS,> 100 µM
same,TGI,XF 498 CNS,> 100 µM
same,TGI,SF-268 CNS,> 100 µM
same,TGI,ACHN renal,> 100 µM
same,TGI,HCT-15 colon,> 100 µM
same,TGI,UACC-257 melanoma,> 100 µM
same,TGI,SF-539 CNS,> 100 µM
same,TGI,SK-MEL-28 melanoma,> 100 µM
same,TGI,K-562 leukemia,> 100 µM
same,TGI,HT29 colon,> 100 µM
same,TGI,CCRF-CEM leukemia,> 100 µM
same,TGI,SF-295 CNS,> 100 µM
same,TGI,HOP-62 NSCLC,> 100 µM
same,TGI,IGROV1 ovarian,> 100 µM
same,TGI,UACC-62 melanoma,> 100 µM
same,TGI,SK-MEL-5 melanoma,> 100 µM
same,TGI,OVCAR-3 ovarian,> 100 µM
same,TGI,OVCAR-5 ovarian,> 100 µM
same,TGI,COLO 205 colon,> 100 µM
same,TGI,LXFL 529 NSCLC,> 100 µM
same,TGI,UO-31 renal,> 100 µM
same,TGI,OVCAR-4 ovarian,> 100 µM
same,TGI,KM20L2 colon,> 100 µM
same,TGI,HCC-2998 colon,> 100 µM
COc1ccc(/C=C/c2cc(OC)c(OC)c(OC)c2)cc1,TGI,A549 NSCLC,> 100 µM
same,TGI,LOX IMVI melanoma,> 100 µM
same,TGI,M19-MEL melanoma,> 100 µM
same,TGI,TK-10 renal,> 100 µM
same,TGI,U251 CNS,11.7 µM
same,TGI,NCI-H226 lung,> 87.7 µM
same,TGI,786-0 renal,> 100 µM
same,TGI,SW-620 colon,> 100 µM
same,TGI,RPMI-8226 leukemia,12.3 µM
same,GI50,NCI-H522 lung,14.1 µM
same,TGI,NCI-H522 lung,40.9 µM
same,TGI,M14 melanoma,> 100 µM
same,TGI,SK-OV-3 ovarian,> 94.6 µM
same,TGI,HCT-116 colon,> 77.2 µM
same,TGI,EKVX NSCLC,> 100 µM
same,TGI,RXF 393 renal,2.62 µM
same,TGI,OVCAR-8 ovarian,> 100 µM
same,TGI,MOLT-4 leukemia,> 100 µM
same,TGI,DMS 114 small cell lung,> 100 µM
same,TGI,DLD-1 colon,> 100 µM
same,TGI,SN12C renal,> 100 µM
same,TGI,NCI-H23 lung,> 81.5 µM
same,TGI,DMS 273 small cell lung,> 100 µM
same,TGI,SNB-75 CNS,> 21.7 µM
same,TGI,KM12 colon,> 100 µM
same,TGI,SK-MEL-2 melanoma,52.8 µM
same,TGI,NCI-H460 lung,> 80.6 µM
same,TGI,SNB-19 CNS,> 100 µM
same,TGI,XF 498 CNS,8.6 µM
same,TGI,SF-268 CNS,> 85.3 µM
same,TGI,ACHN renal,> 100 µM
same,TGI,HCT-15 colon,> 93.5 µM
same,TGI,UACC-257 melanoma,> 100 µM
same,TGI,SF-539 CNS,13.6 µM
same,TGI,SK-MEL-28 melanoma,96.8 µM
same,GI50,K-562 leukemia,34 µM
same,TGI,K-562 leukemia,> 100 µM
same,TGI,HOP-92 NSCLC,> 100 µM
same,TGI,HT29 colon,> 38 µM
same,TGI,CCRF-CEM leukemia,> 100 µM
same,GI50,SF-295 CNS,21.9 µM
same,TGI,SF-295 CNS,61.3 µM
same,TGI,HOP-62 NSCLC,60.1 µM
same,TGI,A498 renal,> 100 µM
same,TGI,CAKI-1 renal,98.4 µM
same,TGI,IGROV1 ovarian,> 100 µM
same,TGI,UACC-62 melanoma,> 100 µM
same,TGI,MALME-3M melanoma,74.3 µM
same,TGI,SK-MEL-5 melanoma,> 85.4 µM
same,TGI,OVCAR-3 ovarian,17.7 µM
same,TGI,HOP-18 NSCLC,> 100 µM
same,TGI,OVCAR-5 ovarian,> 100 µM
same,TGI,RXF-631 renal,> 89.9 µM
same,TGI,COLO 205 colon,11 µM
same,TGI,LXFL 529 NSCLC,> 100 µM
same,TGI,UO-31 renal,> 100 µM
same,TGI,OVCAR-4 ovarian,> 100 µM
same,TGI,SNB-78 CNS,52.9 µM
same,TGI,KM20L2 colon,7.84 µM
same,TGI,HCC-2998 colon,15.7 µM
